The source made the active and inactive calls. No rule for the calls is given here.
Molecular target: Bcl-2-like protein 1 (Homo sapiens) (UniProt Q07817)
Test: Bim-Bcl-XL interaction inhibitors, potency, dose response, biochemical, multiplexed, bead flow cytometry, human Bcl-XL (AID 1322); as to inhibition: test concentration not given here
Conditions: Bead-based flow cytometry, Bim peptide-Bcl-XL binding, MCF

Sequence of Bcl-2-like protein 1 (Homo sapiens) (Q07817 whole entry, looked up): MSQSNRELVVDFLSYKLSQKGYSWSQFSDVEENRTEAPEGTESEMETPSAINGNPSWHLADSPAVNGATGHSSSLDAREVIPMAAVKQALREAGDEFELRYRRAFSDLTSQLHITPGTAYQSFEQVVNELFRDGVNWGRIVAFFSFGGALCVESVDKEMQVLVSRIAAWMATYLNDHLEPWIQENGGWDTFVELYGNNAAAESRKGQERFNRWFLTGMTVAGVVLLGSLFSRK

Structure (SMILES) | outcome
Cc1ccc(Nc2nc(C)cs2)cc1 | inactive
C=CS(=O)c1sc(Cl)c(N2CCOCC2)c1[N+](=O)[O-] (stereo not drawn) | inactive
Cc1ccc(C(NC(=O)C(C)C)c2cc([N+](=O)[O-])c3cccnc3c2O)cc1 (stereo not drawn) | inactive
O=C(Cn1c(-c2ccccc2)noc1=O)N1CCC(Cc2ccccc2)CC1 | inactive
CN(C)C(Cc1ccccc1)C(=O)c1cccs1 (stereo not drawn) | inactive
COc1ccc(OC)c(NC(=O)CCCN2C(=S)NC(C)(C)CC2C)c1 (stereo not drawn) | inactive
CN(C)CCNC(=O)C(=O)C1C(=O)Nc2ccccc21 (stereo not drawn) | inactive
O=C(O)c1ccccc1NSc1ccccc1[N+](=O)[O-] | inactive
N/C(=N\OC(=O)CCC1CCCC1)c1ccncc1 | inactive
Oc1ccc(NCc2ccccc2OCc2ccccc2)cc1 | inactive
O=C(CC1NCCNC1=O)Nc1cccc([N+](=O)[O-])c1 (stereo not drawn) | inactive
CCN(CC)CCN(C(=O)c1ccc(N2C(=O)CCC2=O)cc1)c1nc2cc3c(cc2s1)OCCO3 | inactive

Same assay, conditions: Bead-based flow cytometry, Bim peptide-Bcl-XL binding, MCF

Structure (SMILES) | inhibition
OCCC1CN(Cc2nc3c(s2)CCCC3)CCN1Cc1ccsc1 (stereo not drawn) | inactive
Cc1ccc(C(=O)C(C(=O)/C=C/c2ccccc2)=C2SCCCS2)cc1 | inactive
Cc1c(NC2=C(Cl)C(=O)N(c3ccccc3)C2=O)c(=O)n(-c2ccccc2)n1C | inactive
COP(=O)(CC(=O)O)c1ccccc1 (stereo not drawn) | inactive
Cc1ccccc1OCC(=O)N/N=C/c1ccccn1 | inactive
Cc1ccnc(NS(=O)(=O)c2ccc(NC(=O)c3c(-c4ccccc4Cl)noc3C)cc2)n1 | inactive
Cc1ccc(/C=C2\CCCC3=C2NC(=S)NC3c2ccc(C)cc2)cc1 (stereo not drawn) | inactive
Cc1ccc(/C=C/C(=O)c2ccccc(=O)c2O)cc1C | inactive
COc1ccc(NC(=O)c2cccs2)cc1 | inactive
O=C(c1ccccc1NS(=O)(=O)c1ccc(Br)s1)N1CCCC1 | inactive
COc1ccc(C(=O)Nc2ccc(NC(=O)c3cccs3)cc2)cc1Cl | inactive
O=C1C(Cl)=C(N2CCN(c3ccccc3[N+](=O)[O-])CC2)C(=O)c2ccccc21 | inactive
Cn1c(N)c(C(=O)COC(=O)c2cc(-c3ccco3)nc3ccccc23)c(=O)n(Cc2ccccc2)c1=O | inactive
COc1ccc(Cl)cc1-n1c(C)cc(C=O)c1C | inactive
CCOc1cccc(CNc2ccc(O)cc2)c1OCc1ccccc1Cl | inactive
COc1ccc(CCNC(=O)c2cc(-c3ccccn3)nc3c(Cl)cccc23)cc1OC | inactive
c1ccc2c(N3CCOCC3)nc(N3CCOCC3)nc2c1 | inactive
COC(=O)C1C2c3ccccc3OC1(C)N=c1s/c(=C/c3cnn(C)c3C)c(=O)n12 (stereo not drawn) | inactive
COc1ccc(OC)c2sc(NC(=O)c3ccc(Br)s3)nc12 | inactive
COc1ccc(NC(=O)c2sccc2SCc2cccc(C(F)(F)F)c2)cc1 | inactive
Cc1ccc(-c2cc(C(=O)Nc3cccnc3)c3ccccc3n2)o1 | inactive

Structure (SMILES) | inhibition
CNc1nc2ccccc2n1/N=C/c1cccc(OC)c1OC | inactive
Cc1c(N2C(=O)c3ccc4c5c(ccc(c35)C2=O)CC4)c(=O)n(-c2ccccc2)n1C | inactive
Cn1c(=O)c(C(=O)COC(=O)c2cc(-c3ccco3)nc3ccccc23)c(N)n(CC2CC2)c1=O | inactive
O=C(Cc1ccc(-c2ccccc2)cc1)NC1CCCC1 | inactive
Cc1nnc(NCc2n[nH]c(=O)c3ccccc23)c2ccccc12 | inactive
O=C(Nc1ccc2nc(-c3ccco3)c(-c3ccco3)nc2c1)N1CCCCCC1 | inactive
COc1ccc(N2CCN(CCCNC(=O)CCCn3c(=O)[nH]c4ccsc4c3=O)CC2)cc1 | inactive
Cc1ccc(-c2cc(C(=O)Nc3nccs3)c3ccccc3n2)o1 | inactive
CC1(C(=O)N(CC(=O)NC2CCCC2)Cc2ccco2)CC(=O)N=C2C=CC=CN21 (stereo not drawn) | inactive
Cc1ccc(C)c(/C=C/C(=O)c2ccccc(=O)c2O)c1 | inactive
CCCCC(=O)Nc1ccc(C(=O)N2CCC(C(=O)OCC)CC2)cc1 | inactive
Cc1ccc(C(=O)CCC(=O)Nc2ccc(Cl)c(S(=O)(=O)Nc3cccc(Cl)c3)c2)cc1 | inactive
Cc1cccc(N2CCN(C(=S)Nc3ccc4nc(N5CCN(C)CC5)cc(C)c4c3)CC2)c1C | inactive
CCOCCOc1nc2c(c(=O)n(C)c(=O)n2C)n1CCc1ccccc1 | inactive
Cc1noc(C)c1CN1C(=O)NC(Cc2ccccc2)(Cc2ccccc2)C1=O | inactive
O=C(Oc1ccc(-c2cnc3ccccc3n2)cc1)c1cccc([N+](=O)[O-])c1 | inactive
CNC(=O)/C(C#N)=C/c1c(N(Cc2ccccc2)Cc2ccccc2)nc2c(C)cccn2c1=O | inactive
O=C(Nc1ccc(N2CCOCC2)cc1)Nc1ccc2nc(-c3ccco3)c(-c3ccco3)nc2c1 | inactive
Cc1ccc2nc3c(cc(C(N)=S)c(=N)n3CCCOC(C)C)c(=O)n2c1 | inactive
COc1ccccc1-n1c(SCC(=O)N2CCc3ccccc32)nc2c(c1=O)SCC2 | inactive
NC(=O)CSc1nnc(Cn2cnc3ccccc32)o1 | inactive

Structure (SMILES) | inhibition
CCCCOc1ccc(Cc2c(Cl)nc(SC)nc2N2CCOCC2)cc1 | inactive
CN1C(=O)/C(=C/c2ccc(-c3ccccc3[N+](=O)[O-])o2)SC1=Nc1ccc(Cl)c(C(=O)O)c1 | inactive
O=C(CNC(=O)c1ccco1)NCC(=O)OCc1ccccc1Br | inactive
CC(C(=O)Nc1ccc([N+](=O)[O-])cc1)N1CCN(C/C=C/c2ccccc2)CC1 (stereo not drawn) | inactive
COc1ccccc1Cn1nnc2c(=O)[nH]c(C3CCN(C(=O)c4ccc(C)cc4)CC3)nc21 | inactive
Cc1nc(NC(=O)CC(C)C)sc1-c1csc(Nc2ccc(Cl)cc2)n1 | inactive
COc1cccc(/C=N/NC(=O)c2cc3cc([N+](=O)[O-])ccc3s2)c1O | inactive
O=C(NCCCN1CCN(CCCNC(=O)c2cc([N+](=O)[O-])ccc2Cl)CC1)c1cc([N+](=O)[O-])ccc1Cl | inactive
O=C(CSc1nnc(-c2ccco2)n1Cc1ccccc1)c1ccccc1 | inactive
Nc1ccccc1N=c1ssnc1Cl | inactive
COc1ccc(NC(=O)/C(Cl)=C(/Cl)S(=O)Cc2ccccc2)cn1 (stereo not drawn) | inactive
CN(CC(=O)O/N=C(\N)c1ccc([N+](=O)[O-])cc1)S(=O)(=O)c1ccccc1 | inactive
COc1ccc(NC(=O)c2ccco2)cc1NC(=O)c1ccco1 | inactive
CCn1c(SCC(=O)Nc2ccccc2-c2ccccc2)nnc1-c1ccoc1C | inactive
Nc1ccc(C2=Nc3cccc4cccc(c34)N2)cc1 | inactive
OC(CNC1CCCCC1)COCCOc1ccc(Br)cc1 (stereo not drawn) | inactive
O=C(Nc1cccc(C(F)(F)F)c1)c1ccc2nc(-c3ccco3)c(-c3ccco3)nc2c1 | inactive
Cn1c(CNc2nc(-c3ccccc3)cs2)nnc1SCC(=O)N1CCc2ccccc21 | inactive
CC[n+]1c(/C=C/C=C/N(C(C)=O)c2ccccc2)sc2ccccc21 | inactive
